Earlier results on one compound are cited in patent US20160081915A1, “TRANSDERMAL FORMULATIONS OF FLUTICASONE” (STRATEGIC SCIENCE & TECHNOLOGIES, LLC, priority 2013, published 2016).

For the series the following is noted: oral; extensive first-pass metabolism in the liver.

`C[C@@H]1C[C@H]2[C@@H]3C[C@H](F)C4=CC(=O)C=C[C@]4(C)[C@@]3(F)[C@@H](O)C[C@]2(C)[C@@]1(O)C(=O)SCF` [fluticasone]: the “half-life when delivered orally” value is recorded as “about 7.8 hours”.
